≈ marks a conversion by molar mass, not a printed value. Entries after “also recorded” stand apart in the source; their conditions may differ. Where a SMILES comes first, the peptide text is derived from it. The star is where a group is joined. Cbz = O=C(OCc1ccccc1)*; CH2F = FC*
Experiments:
[1] = tested on: A549 cells; assay: FAS-induced apoptosis (activating anti-FAS antibody CH-11) in A549 cells, ISEL / nuclear fragmentation; type: cell-based, human; details: for inhibition of Fas-induced apoptosis of A549 cells: lisinopril 500 ng/ml
Experimental: Cell Culture. […] Cells were seeded on 12 mm sterile glass cover slips in 24-well chambers at a density of 20,000 cells per well.
Fluorescence Detection of Apoptosis. […] J. Physiol. […] In these assays detached cells were retained by centrifugation of the 24-well culture vessels during fixation with 70% ethanol. In situ end-labeling of fragmented DNA (ISEL) was conducted as described in Gorczyka et al., Canc. Res. 53:1945-1951 (1993). Briefly, ethanol was removed by rinsing cover slips in distilled water for at least 10 minutes. […] The sections were rinsed thoroughly five times with Buffer A and three additional times in 0.5 M PBS. Incorporated bio-UTP was detected by incubation for one hour at 37° C. with avidin-rhodamine; the cover slips were then rinsed in distilled water three times and mounted under Fluoromount Solution (Southern Biotechnology Associates, Birmingham, Ala.).
Spontaneous or stimulated apoptosis was quantitated as described in Uhal et al., Am. J. Physiol. 269:L819-L828 (1995), in the human lung epithelial cell line A549 by fluorescence detection of chromatin condensation and nuclear fragmentation. The human lung epithelial cell line A549 was cultured on glass cover slips as described in Uhal, et al., Am. J. Physiol. 269:L819-L828 (1995). At the end of the test period, detached cells were retained by centrifuging the culture vessel during fixation of cells in 70% ethanol. Fixed cells were incubated for 30 minutes with 5 ug/ml propidium iodide (PI) in PBS containing DNAse-free RNAse; under these conditions, red fluorescence (>570 nm) is specific for DNA. As in Uhal et al., Am. J. Physiol. 269:L819-L828 (1995), apoptotic cells were identified by the presence of discrete nuclear fragments containing condensed chromatin. Human lung A549 cells were cultured for 20 h in the presence of equivalent concentrations (500 ng/ml) of monoclonal antibody CH-11 (FAS mAb), purified IgM fraction of nonimmune mouse immunoglobulins (IgM), monoclonal antibody 5F-7 (mAb2), and monoclonal antibody 5F-9 (mAb3). Apoptotic cells were scored by the nuclear morphology assay discussed above. A significant difference (p<0.01 compared to control (no additives)), was observed between the means±S.E.M. (at least 4 determinations per condition) of the cells exposed to FAS mAb as compared to the control or other antibody treatments as determined by ANOVA and Dunnett's test. […] J. Physiol.
Ethanol-fixed A549 cells on glass cover slips were subjected to ISEL labeling of fragmented DNA. DNA fragments labeled with biotinylated UTP were detected with rhodamine-conjugated avidin. A549 cells were exposed to either 500 ng/ml anti-FAS antibody (CH-11) under the same conditions as described above or in the presence of 50 ng/ml captopril. […] ISEL-positive A549 cells were quantitated in at least four separate culture vessels exposed to the anti-FAS antibody CH-11 at 500 ng/ml and/or 50 ng/ml captopril.
A549 cells were exposed to anti-FAS antibody CH-11 as described above, in the presence of 0.005 ng/ml (5 pg/ml) to 50 ng/ml captopril. Inhibition of apoptosis was detected as the decrease in ISEL-positive cells, scored as described above. […] Inhibition of apoptosis was maximal (approximately 85-90%) at 50 ng/ml captopril, a concentration known to be physiologically attainable in humans and to be maximally inhibitory for ACE. See Duchin et al., Clin. Pharmacokinet. 14:241-259 (1988).
Cell Culture and Detection of Apoptosis. […] Ibarra-Sunga, C. Gidea, E. Ang, S. Deshmukh, G. Chaudhary, J. Baraboutis, G. Filippatos and B. D. Uhal, Angiotensin II induces apoptosis in human and rat alveolar epithelial cells. Am. J. Physiol. 276:L885-L889 (1999)). […] J. Physiol. […] As in the above Examples, the induction of apoptosis was verified by Annexin V binding and generation of DNA strand breaks […]

[2] = tested on: A549 cells; assay: Amiodarone-induced net cell loss in A549 cultures; type: cell-based, human; details: A549
Experimental: Primary alveolar epithelial cells were isolated from adult male Wistar rats. The primary cells were studied at day two of culture, a time at which they are type II cell-like by accepted morphologic and biochemical criteria. All primary cell preparations were of better than 90% purity assessed by acridine orange staining. All cells were seeded in 24-well or 6-well chambers, and all experiments were conducted at subconfluent densities of 80-90% in serum-free Ham's F12 medium. Test reagents were diluted with Ham's F12 medium and were applied for 20 hours at 37C. in a 5% CO2 incubator.
In all assays, detached cells were retained by centrifugation of the culture vessel at 300×g for 10 minutes with a centrifuge rotor designed for culture plates. For detection of necrosis (dye exclusion of PI), the PI was added directly to the cell culture medium immediately before centrifugation of the culture vessel. For detection of apoptosis, ethanol was added directly to the cell culture medium to a final concentration of 70% immediately before the centrifugation. Afterward, the ethanol was carefully removed and the total cell population (attached plus sedimented detached cells) were stained with PI as described above.
Importantly, unattached cells were recovered and included in the analyses, and thus the data represent true loss of cells rather than simple detachment from the substratum.

[3] = tested on: primary rat AEC; assay: Angiotensinogen-induced apoptosis in primary rat AEC; type: cell-based; details: ANG 5.0 uM; saralasin 50 ug/ml, lisinopril 500 ng/ml
Experimental: Cell Culture. […] J. Physiol. Suppl. […] J. Physiol. […] J. Physiol. […] J. Physiol. Suppl.
Detection of Apoptosis. […] J. Physiol. […] Assay of Annexin V binding by flow cytometry was performed essentially as described for human lung fibroblasts in Uhal, et al., Am. J. Physiol. […] Assay of Caspase-3 activity was performed on viable suspension cultures as reported in Uhal, et al., Am. J. Physiol.
For microscopy, cells were cultured on glass cover slips, incubated with test reagents and fixed with 70% ethanol. The fixed cells were immunolabeled overnight at 4° C. with monoclonal antibodies to cytokeratins 7 and 19 (Chemicon International, Temecula, Calif.), and then for one hour at 37° C. with anti-mouse IgG-rhodamine and DNAse-free RNAse (Boehringer Mannheim, Indianapolis, Ind.) The cover slips were then rinsed in distilled water three times and mounted under Fluoromount Solution (Southern Biotechnology Associates, Birmingham, Ala.) containing 5 ug/ml propidium iodide. Photomicroscopy was performed as described in Uhal, et al., Am. J. Physiol.

| SMILES | inhibition of Fas-induced apoptosis of A549 cells [1] | effect on amiodarone-induced decrease in total cell number [2] | inhibition of angiotensinogen-induced apoptosis [3] | also measured |
| --- | --- | --- | --- | --- |
| CCc1nc2c(C)cc(C)nc2n1Cc1ccc(-c2ccccc2-c2nn[nH]n2)cc1 [L158809] | could block |  |  |  |
| COc1ccc2c(c1OCc1ccccc1)C[C@@H](C(=O)O)N(C(=O)C(c1ccccc1)c1ccccc1)C2 [PD126055] | unable to significantly inhibit |  |  |  |
| COC(=O)C[C@H](NC(=O)[C@H](C)NC(=O)[C@@H](NC(=O)OCc1ccccc1)C(C)C)C(=O)CF [ZVAD-fmk, N-benzylcarboxy-Val-Ala-Asp-[O-Me]-CH2F] (Cbz-Val-Ala-Asp(OMe)-CH2F) |  | significantly inhibited |  |  |
| C[C@H](CS)C(=O)N1CCC[C@H]1C(=O)O [captopril] |  | significantly inhibited |  | effect on FAS-induced apoptotic indexes (morphology, DNA fragmentation, ISEL-positive cells) ([1]; 50 ng/ml captopril with anti-FAS CH-11 500 ng/ml): completely abrogated; also recorded: essentially abolished; IC50 ([1]; Homo sapiens, A549, 20 h, read-out: IC50 of inhibition of FAS-induced apoptosis (ISEL labeling)): 0.07 ng/mL (≈ 0.322 nM); inhibition at 0.05 µg/mL ([1]; Homo sapiens, A549, read-out: maximal inhibition of apoptosis (decrease in ISEL-positive cells)): 85 to 90%; concentration at which inhibition of FAS-induced ISEL labeling was measurable ([1]; anti-FAS CH-11): 5 pg/mL; effect on basal ISEL labeling ([1]; captopril alone): no significant effect |
| NCCCC[C@H](N[C@@H](CCc1ccccc1)C(=O)O)C(=O)N1CCC[C@H]1C(=O)O [lisinopril] | significantly inhibited |  | blocked | inhibition at 0.5 µg/mL ([1]; Homo sapiens, A549 or primary rat AEC, lisinopril 0.5 μg/ml, saralasin 5 μg/ml, read-out: maximal inhibition of apoptosis in response to either Fas activator): 82% |
| CNCC(=O)N[C@@H](CCCN=C(N)N)C(=O)N[C@H](C(=O)N[C@@H](Cc1ccc(O)cc1)C(=O)N[C@H](C(=O)N[C@@H](Cc1cnc[nH]1)C(=O)N1CCC[C@H]1C(=O)N[C@@H](C)C(=O)O)C(C)C)C(C)C [saralasin] |  | significantly inhibited | completely inhibited | inhibition of AEC apoptosis in response to Fas ([1]; cell type not given): 93% |

Source: patent US20030113330A1, “Methods for treating pulmonary fibrosis” (priority 1999, published 2003)
